Measurements as given in ChEMBL document CHEMBL1201862, “PubChem BioAssay data set” (2004).
The source made the active and inactive calls.

Assays:
Assay type in all cases: functional
Vero = assay: inhibition of WNV-induced cytopathic effect – cell-based, CPE readout (AID 1621); conditions: Chlorocebus sabaeus
[1] = viability loss in HeLa cells – cytotoxicity control for MgcRacGAP inhibitor project, dose response (AID 624300)
[2] = biological target: T1, Rac GTPase-activating protein 1 (Homo sapiens, UniProt Q9H0H5); assay: blockers of MgcRacGAP-driven Rac1 GTP hydrolysis – biochemical, ADP Hunter fluorescence, primary and confirmatory, confirmation (AID 624330)
T1 sequence (Q9H0H5 whole entry): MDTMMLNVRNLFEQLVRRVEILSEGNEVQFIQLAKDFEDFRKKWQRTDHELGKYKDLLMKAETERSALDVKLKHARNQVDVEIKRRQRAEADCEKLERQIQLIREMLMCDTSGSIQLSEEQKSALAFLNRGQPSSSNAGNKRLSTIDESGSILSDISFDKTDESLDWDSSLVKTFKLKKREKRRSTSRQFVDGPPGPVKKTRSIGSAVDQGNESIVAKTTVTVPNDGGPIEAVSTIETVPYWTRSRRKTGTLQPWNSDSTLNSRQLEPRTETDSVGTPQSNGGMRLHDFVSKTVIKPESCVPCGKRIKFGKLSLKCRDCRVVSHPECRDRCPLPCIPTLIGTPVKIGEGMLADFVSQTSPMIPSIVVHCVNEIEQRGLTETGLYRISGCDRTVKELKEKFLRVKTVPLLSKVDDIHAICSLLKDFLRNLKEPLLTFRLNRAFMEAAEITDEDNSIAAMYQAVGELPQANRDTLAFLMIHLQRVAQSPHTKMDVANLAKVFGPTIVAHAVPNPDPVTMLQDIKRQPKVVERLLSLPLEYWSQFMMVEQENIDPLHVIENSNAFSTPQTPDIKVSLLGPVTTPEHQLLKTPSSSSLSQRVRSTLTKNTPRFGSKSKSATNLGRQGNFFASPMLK

[3] = biological target: T2, High affinity choline transporter 1 (Homo sapiens, UniProt Q9GZV3); assay: human choline transporter blockers, potency – cell-based, 5-point CRC, membrane potential dye, dose response (AID 504840)
T2 sequence (Q9GZV3 whole entry): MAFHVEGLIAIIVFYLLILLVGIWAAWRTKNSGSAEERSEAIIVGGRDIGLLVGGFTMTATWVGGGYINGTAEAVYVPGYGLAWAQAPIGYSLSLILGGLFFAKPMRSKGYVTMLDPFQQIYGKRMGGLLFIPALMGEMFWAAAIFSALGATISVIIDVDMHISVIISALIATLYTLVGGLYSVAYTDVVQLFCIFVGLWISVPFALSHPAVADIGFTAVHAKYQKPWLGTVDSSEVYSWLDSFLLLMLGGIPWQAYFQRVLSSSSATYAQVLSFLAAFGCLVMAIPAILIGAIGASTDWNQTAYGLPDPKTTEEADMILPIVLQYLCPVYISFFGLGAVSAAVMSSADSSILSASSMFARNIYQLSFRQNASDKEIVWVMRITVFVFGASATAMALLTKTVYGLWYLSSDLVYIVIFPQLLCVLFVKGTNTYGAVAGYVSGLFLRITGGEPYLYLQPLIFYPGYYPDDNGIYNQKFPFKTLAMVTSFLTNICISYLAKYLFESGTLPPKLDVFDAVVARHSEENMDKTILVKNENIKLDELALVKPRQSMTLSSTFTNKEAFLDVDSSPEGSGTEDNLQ

[4] = biological target: T2, High affinity choline transporter 1; assay: human choline transporter blockers, potency – cell-based, 10-point CRC, membrane potential dye, dose response (AID 588401);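 further: membrane potential dye fluorescence of choline-evoked depolarization via CHT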
[5] = biological target: T3, Apoptotic protease-activating factor 1 (Homo sapiens, UniProt O14727); assay: SAR analysis of small molecule Activators of Apaf-1 in a Fluorescent assay - set 2.; conditions: read-out: EC50_Mean
T3 sequence (O14727 whole entry): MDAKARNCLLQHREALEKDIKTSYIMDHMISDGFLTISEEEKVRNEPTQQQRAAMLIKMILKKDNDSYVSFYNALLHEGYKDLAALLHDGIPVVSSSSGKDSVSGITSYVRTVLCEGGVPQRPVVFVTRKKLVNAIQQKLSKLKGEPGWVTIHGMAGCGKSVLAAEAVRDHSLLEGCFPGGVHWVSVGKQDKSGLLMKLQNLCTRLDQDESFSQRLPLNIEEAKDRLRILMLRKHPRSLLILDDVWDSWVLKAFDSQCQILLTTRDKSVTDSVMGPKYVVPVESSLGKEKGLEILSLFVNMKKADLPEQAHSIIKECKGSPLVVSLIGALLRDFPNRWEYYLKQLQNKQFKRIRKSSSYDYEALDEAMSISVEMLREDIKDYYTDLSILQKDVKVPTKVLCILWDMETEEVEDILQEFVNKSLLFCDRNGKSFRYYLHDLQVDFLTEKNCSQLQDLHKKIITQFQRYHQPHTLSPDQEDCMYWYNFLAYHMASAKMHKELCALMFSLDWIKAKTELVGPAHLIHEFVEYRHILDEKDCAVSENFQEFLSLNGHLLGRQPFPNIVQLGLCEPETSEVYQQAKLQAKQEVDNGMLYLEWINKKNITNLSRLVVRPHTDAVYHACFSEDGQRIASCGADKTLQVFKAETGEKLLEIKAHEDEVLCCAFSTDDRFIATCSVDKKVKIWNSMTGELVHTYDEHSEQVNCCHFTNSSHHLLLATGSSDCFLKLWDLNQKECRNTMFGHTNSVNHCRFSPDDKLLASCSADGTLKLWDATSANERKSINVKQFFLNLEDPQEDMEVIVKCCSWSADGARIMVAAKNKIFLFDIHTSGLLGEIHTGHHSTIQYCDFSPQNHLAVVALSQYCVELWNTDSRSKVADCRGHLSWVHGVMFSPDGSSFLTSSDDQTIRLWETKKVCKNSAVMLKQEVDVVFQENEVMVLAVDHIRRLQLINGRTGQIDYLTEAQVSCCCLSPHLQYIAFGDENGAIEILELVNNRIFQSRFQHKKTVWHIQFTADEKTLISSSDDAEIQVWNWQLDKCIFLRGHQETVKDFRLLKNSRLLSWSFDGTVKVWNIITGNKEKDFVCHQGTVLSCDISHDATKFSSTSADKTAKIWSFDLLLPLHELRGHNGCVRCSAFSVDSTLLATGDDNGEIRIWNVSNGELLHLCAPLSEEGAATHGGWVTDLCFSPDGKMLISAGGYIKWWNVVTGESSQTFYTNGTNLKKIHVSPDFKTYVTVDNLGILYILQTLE

[6] = SAR analysis of small molecule activators of Apaf-1 using a LZ-Caspase-9/Caspase-3 Fluorescent Selectivity assay - Set 2.; conditions: read-out: EC50_Mean

EC50 [5] | EC50 [6] | Structure (SMILES) | IC50 (Vero) | CC50 [1] | IC50 [2] | IC50 [3] | IC50 [4]
 |  | CCN(CC)CCCC(C)NC(=O)c1c(NC(=O)c2ccccc2)sc2c1CCCC2 (configuration not stated) | 21.4 µM (active) | 100 µM (active) | 144 µM (active) | 2.41 µM (active) | 3.36 µM (active)
> 100 µM (inactive) | > 100 µM (inactive) | COc1ccccc1C1=NOC(C(=O)O)C1 (configuration not stated) |  |  |  |  | 
